PubChem BioAssay (NCI)
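Dose response: 5 concentrations. Exposure: 48 h. Format: 96-well plates. Endpoint: linear interpolation; highest concentration if not reached. TGI: total growth inhibition.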

Experiments:
Assay in all cases: DTP human tumour cell line panel, 48 h
[1] = system: SK-MEL-5 melanoma
[2] = system: KM12 colon
[3] = system: HCC-2998 colon
[4] = system: UACC-257 melanoma
[5] = system: SF-268 CNS
[6] = system: COLO 205 colon
[7] = system: MDA-MB-435
[8] = system: UO-31 renal
[9] = system: HCT-15 colon
[10] = system: HCT-116 colon
[11] = system: OVCAR-5 ovarian
[12] = system: MALME-3M melanoma
[13] = system: M19-MEL melanoma
[14] = system: SW-620 colon
[15] = system: OVCAR-4 ovarian
[16] = system: OVCAR-8 ovarian
[17] = system: SK-MEL-2 melanoma
[18] = system: DMS 114 small cell lung
[19] = system: EKVX NSCLC
[20] = system: LOX IMVI melanoma
[21] = system: SF-295 CNS
[22] = system: K-562 leukemia
[23] = system: OVCAR-3 ovarian
[24] = system: SNB-19 CNS
[25] = system: SNB-75 CNS
[26] = system: NCI-H522 lung
[27] = system: HL-60(TB) leukemia
[28] = system: A498 renal
[29] = system: KM20L2 colon
[30] = system: T-47D breast
[31] = system: UACC-62 melanoma
[32] = system: ACHN renal
[33] = system: RXF 393 renal
[34] = system: LXFL 529 NSCLC
[35] = system: MCF7 breast
[36] = system: HOP-92 NSCLC
[37] = system: NCI-H460 lung
[38] = system: HS 578T breast
[39] = system: 786-0 renal
[40] = system: IGROV1 ovarian
[41] = system: M14 melanoma
[42] = system: SR leukemia
[43] = system: NCI-H23 lung
[44] = system: MOLT-4 leukemia
[45] = system: NCI-H226 lung
[46] = system: CAKI-1 renal
[47] = system: SK-OV-3 ovarian
[48] = system: SF-539 CNS
[49] = system: DU-145 prostate
[50] = system: A549 NSCLC
[51] = system: CCRF-CEM leukemia
[52] = system: SNB-78 CNS
[53] = system: U251 CNS
[54] = system: HT29 colon
[55] = system: BT-549 breast
[56] = system: DLD-1 colon
[57] = system: RPMI-8226 leukemia
[58] = system: SK-MEL-28 melanoma
[59] = system: SN12C renal
[60] = system: TK-10 renal
[61] = system: HOP-62 NSCLC

## O=C(NC1=C(Cl)C(=O)c2ccccc2C1=O)C(=O)C(C(=O)c1ccc2ccccc2c1)C1OC(=O)c2ccccc21 (stereo unspecified)
[1]
  TGI: 1.96 µM
[2]
  TGI: 13.7 µM
[3]
  TGI: 22.7 µM
[4]
  TGI: 5.48 µM
[5]
  TGI: 29.6 µM
[6]
  TGI: 18.5 µM
[7]
  TGI: 3.33 µM
[8]
  TGI: 29.4 µM
[9]
  TGI: 18 µM
[10]
  TGI: 10.5 µM
[11]
  TGI: 27.5 µM
[12]
  TGI: 4.16 µM
[13]
  TGI: 0.856 µM
[14]
  TGI: 28.2 µM
[15]
  TGI: 19.8 µM
[16]
  TGI: 24.5 µM
[17]
  TGI: 19.1 µM
[18]
  TGI: 15.1 µM
[19]
  TGI: 24.7 µM
[20]
  TGI: 11.2 µM
[21]
  TGI: 14.9 µM
[22]
  TGI: 25.6 µM
[23]
  TGI: 9.77 µM
[24]
  TGI: 19 µM
[25]
  TGI: 13.6 µM
[26]
  TGI: 12.1 µM
[27]
  TGI: 7.6 µM
[28]
  TGI: 18.4 µM
[29]
  TGI: 18.6 µM
[30]
  TGI: 29.3 µM
[31]
  TGI: 4.31 µM
[32]
  TGI: 21.1 µM
[33]
  TGI: 12.8 µM
[34]
  TGI: 17.7 µM
[35]
  TGI: 16.8 µM
[36]
  TGI: 10.3 µM
[37]
  TGI: 12 µM
[38]
  TGI: 45.2 µM
[39]
  TGI: 20.6 µM
[40]
  TGI: 27 µM
[41]
  TGI: 18.2 µM
[42]
  TGI: 29.4 µM
[43]
  TGI: 13.4 µM
[44]
  TGI: 14.1 µM
[45]
  TGI: 7.09 µM
[46]
  TGI: 23.2 µM
[47]
  TGI: 44 µM
[48]
  TGI: 9.66 µM
[49]
  TGI: 23.9 µM
[50]
  TGI: 17.5 µM
[51]
  TGI: 26.9 µM
[52]
  TGI: 15.4 µM
[53]
  TGI: 18.5 µM
[54]
  TGI: 17.7 µM
[55]
  TGI: 17.3 µM
[56]
  TGI: 16.9 µM
[57]
  TGI: 26.2 µM
[58]
  TGI: 14.5 µM
[59]
  TGI: 16.3 µM
[60]
  TGI: 65.1 µM
[61]
  TGI: 20.2 µM
